# Reference: PubChem BioAssay (NCI)
#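 Briefly, cells in 96-well plates were exposed to five compound concentrations for 48 h, and endpoints were estimated by linear interpolation. TGI: concentration producing complete growth inhibition.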
# Experiments:
# Assay in all cases: growth of human tumour cells (NCI), 48 h
# [1] = test system: HS 578T breast
# [2] = test system: MDA-MB-435
# [3] = test system: 786-0 renal
# [4] = test system: CCRF-CEM leukemia
# [5] = test system: HCC-2998 colon
# [6] = test system: MDA-N
# [7] = test system: UACC-62 melanoma
# [8] = test system: SK-OV-3 ovarian
# [9] = test system: A498 renal
# [10] = test system: EKVX NSCLC
# [11] = test system: NCI-H23 lung
# [12] = test system: SK-MEL-5 melanoma
# [13] = test system: SF-539 CNS
# [14] = test system: HOP-62 NSCLC
# [15] = test system: MDA-MB-231 breast
# [16] = test system: SNB-75 CNS
# [17] = test system: NCI/ADR-RES ovarian
# [18] = test system: SN12C renal
# [19] = test system: SR leukemia
# [20] = test system: U251 CNS
# [21] = test system: UACC-257 melanoma
# [22] = test system: UO-31 renal
# [23] = test system: SF-295 CNS
# [24] = test system: COLO 205 colon
# [25] = test system: SW-620 colon
# [26] = test system: ACHN renal
# [27] = test system: HCT-15 colon
# [28] = test system: SK-MEL-2 melanoma
# [29] = test system: PC-3 prostate
# [30] = test system: K-562 leukemia
# [31] = test system: MALME-3M melanoma
# [32] = test system: SK-MEL-28 melanoma
# [33] = test system: NCI-H460 lung
# [34] = test system: NCI-H226 lung
# [35] = test system: IGROV1 ovarian
# [36] = test system: OVCAR-8 ovarian
# [37] = test system: RPMI-8226 leukemia
# [38] = test system: TK-10 renal
# [39] = test system: CAKI-1 renal
# [40] = test system: HCT-116 colon
# [41] = test system: T-47D breast
# [42] = test system: A549 NSCLC
# [43] = test system: HL-60(TB) leukemia
# [44] = test system: MCF7 breast
# [45] = test system: SNB-19 CNS
# [46] = test system: SF-268 CNS
# [47] = test system: DU-145 prostate
# [48] = test system: KM12 colon
# [49] = test system: M14 melanoma
# [50] = test system: MOLT-4 leukemia
# [51] = test system: HT29 colon
# [52] = test system: RXF 393 renal
# [53] = test system: LOX IMVI melanoma
# [54] = test system: NCI-H522 lung
# [55] = test system: OVCAR-5 ovarian
# [56] = test system: HOP-92 NSCLC
# [57] = test system: BT-549 breast
# [58] = test system: OVCAR-3 ovarian
# [59] = test system: OVCAR-4 ovarian
smiles,measurement,setting,value
O=C(/C(=C\C(=O)c1cccs1)c1ccsc1)c1ccc(Br)cc1,TGI,[1],> 100 µM
same,TGI,[2],> 100 µM
same,TGI,[3],> 100 µM
same,TGI,[4],> 100 µM
same,TGI,[5],> 100 µM
same,TGI,[6],> 100 µM
same,TGI,[7],> 100 µM
same,TGI,[8],> 100 µM
same,TGI,[9],> 100 µM
same,TGI,[10],> 100 µM
same,TGI,[11],> 100 µM
same,TGI,[12],> 100 µM
same,TGI,[13],> 100 µM
same,TGI,[14],> 100 µM
same,TGI,[15],> 100 µM
same,TGI,[16],> 100 µM
same,TGI,[17],> 100 µM
same,TGI,[18],> 100 µM
same,TGI,[19],> 100 µM
same,TGI,[20],> 100 µM
same,TGI,[21],> 100 µM
same,TGI,[22],> 100 µM
same,TGI,[23],> 100 µM
same,TGI,[24],> 100 µM
same,TGI,[25],> 100 µM
same,TGI,[26],> 100 µM
same,TGI,[27],> 100 µM
same,TGI,[28],> 100 µM
same,TGI,[29],> 100 µM
same,TGI,[30],> 100 µM
same,TGI,[31],> 100 µM
same,TGI,[32],> 100 µM
same,TGI,[33],> 100 µM
same,TGI,[34],> 100 µM
same,TGI,[35],> 100 µM
same,TGI,[36],> 100 µM
same,TGI,[37],> 100 µM
same,TGI,[38],> 100 µM
same,TGI,[39],> 100 µM
same,TGI,[40],> 100 µM
same,TGI,[41],> 100 µM
same,TGI,[42],> 100 µM
same,TGI,[43],> 100 µM
same,TGI,[44],> 100 µM
same,TGI,[45],> 100 µM
same,TGI,[46],> 100 µM
same,TGI,[47],> 100 µM
same,TGI,[48],> 100 µM
same,TGI,[49],> 100 µM
same,TGI,[50],> 100 µM
same,TGI,[51],> 100 µM
COc1ccc(N(C)C(=O)N(C)c2ccc([N+](=O)[O-])cc2)cc1,TGI,[52],76.2 µM
same,TGI,[1],41.3 µM
same,TGI,[2],18.6 µM
same,TGI,[3],> 100 µM
same,TGI,[4],> 100 µM
same,TGI,[5],> 100 µM
same,TGI,[6],24.2 µM
same,TGI,[7],> 100 µM
same,TGI,[8],91.5 µM
same,TGI,[9],> 100 µM
same,TGI,[10],> 100 µM
same,TGI,[11],> 100 µM
same,TGI,[12],> 100 µM
same,TGI,[13],96.6 µM
same,TGI,[14],> 100 µM
same,TGI,[15],> 100 µM
same,TGI,[16],> 100 µM
same,TGI,[17],68.4 µM
same,TGI,[18],> 100 µM
same,TGI,[53],> 100 µM
same,TGI,[19],> 100 µM
same,TGI,[20],> 100 µM
same,TGI,[54],> 100 µM
same,TGI,[21],> 100 µM
same,TGI,[22],> 100 µM
same,TGI,[55],> 100 µM
same,TGI,[56],> 100 µM
same,TGI,[57],> 100 µM
same,TGI,[25],> 100 µM
same,TGI,[26],> 100 µM
same,TGI,[58],84.2 µM
same,TGI,[27],> 100 µM
same,TGI,[28],45.3 µM
same,TGI,[30],> 100 µM
same,TGI,[31],> 100 µM
same,TGI,[32],> 100 µM
same,TGI,[33],> 100 µM
same,TGI,[34],> 100 µM
same,TGI,[35],> 100 µM
same,TGI,[36],> 100 µM
same,TGI,[37],> 100 µM
same,TGI,[38],73.3 µM
same,TGI,[39],> 100 µM
same,TGI,[40],> 100 µM
same,TGI,[41],> 100 µM
same,TGI,[42],> 100 µM
same,TGI,[43],> 100 µM
same,TGI,[44],> 100 µM
same,TGI,[45],> 100 µM
same,TGI,[46],> 100 µM
same,TGI,[47],> 100 µM
same,TGI,[48],91.6 µM
same,TGI,[49],> 100 µM
same,TGI,[50],> 100 µM
same,TGI,[51],> 100 µM
same,TGI,[59],> 100 µM
